Source: patent US20240058456A1, “MOLECULES WITH SOLUBILITY TAG AND RELATED METHODS” (Merck Patent GmbH, priority 2020, published 2024)

Experiment: Solubility and aggregation during conjugation
Type: physicochemical
Conditions: conjugation media
Protocol: To this end, 1 eq antibody in a buffer with 150 mM NaCl, 25 mM Tris (pH 8.0) was mixed with a solution of the respective payload (10× or 20× surplus to the concentration of the antibody, depending on the number of linkage sites) and 6 U/ml of transglutaminase. The mixture was incubated for 16 h in a thermomixer at 37° C. and 450 rpm.
For linkage by maleimide chemistry, a 5 mg/mL solution of the respective antibody component in PBS (pH 7.4) was prepared (˜33 μM antibody). The antibody was reduced with TCEP ((tris(2-carboxyethyl)phosphine); ratio of antibody component to TCEP 1:2 to 1:6, depending on the desired DAR; TCEP was used as 2 mM stock, pH 7.0) or in some cases with DTT (dithiothreitol; 20 mM). After incubation for 0.5-2 hours (depending on the number of cysteines to be activated) in a 37° C. water bath, the reaction was allowed to cool down to room temperature.
The solution was desalted to conjugation buffer (10 mM sodium phosphate, pH 6.0, 2 mM EDTA, N2 degassed) on a Sephadex G25 column and adjusted to an antibody concentration of 0.2 mg/mL in conjugation buffer.
Conjugation was initiated by adding the reduced antibody to a solution of the appropriate maleimide-activated linker-payload construct at a suitable ratio (e.g. 1:4 to 1:8 ratio antibody to linker-payload construct for DAR 4; e.g. 1:20 ratio antibody to linker-payload construct for DAR 8). […]

In the case of `Cc1cccc2c(OC(=O)N(CCC(=O)NCCOS(=O)(=O)O)CCN(C)C(=O)OCc3ccc(NC(=O)[C@H](CCCNC(N)=O)NC(=O)[C@@H](NC(=O)CNC(=O)CNC(=O)CN)C(C)C)cc3)cc3c(c12)[C@H](CCl)CN3C(=O)c1cn2cc(NC(=O)c3cc4ccccc4o3)ccc2n1` [Compound 5], the “solubility of the linker-payload construct under coupling conditions” value is reported as “insufficient”.
